Test results as given in ChEMBL document CHEMBL4665772, “Secoiridoids and Iridoids from Morinda asteroscepa” (J Nat Prod, 2020).
Activity calls are given as the source filed them. The calls are words filed in the database; no cut-off is given here.

Tested on: Plasmodium falciparum
Experiment: Antimalarial activity against Plasmodium falciparum 3D7 at 10 uM
Type: functional, organism-based

Compound	Activity
COC(=O)C1=CO[C@@H](O[C@@H]2O[C@H](CO)[C@@H](O)[C@H](O)[C@H]2O)[C@H]2[C@@H]1[C@H](O)C[C@]2(C)OC(C)=O	inactive
COC(=O)[C@@H](CO)[C@H]1[C@H](O)C[C@](C)(OC(C)=O)[C@H]1C(=O)O	inactive
COC(=O)[C@@H](CO)[C@H]1[C@H](O)C[C@](C)(O)[C@H]1C(=O)O	inactive
COC(=O)[C@@H]1COC(=O)[C@H]2[C@@H]1[C@@H](O)C[C@@]2(C)OC(C)=O	inactive
